# Laboratory results reported in paper PMC12309968 (iScience, 2025).
# “Also recorded” adds a separate entry of the source. Read-outs that look alike come from different tables or passages of the source. Positions of bridges follow the written chain, without caps; N, C: chain ends. Non-standard residues stand in square brackets, D forms with d. Residues, ends and D or L forms follow the SMILES beside them. *: point of attachment. Octanoyl = CCCCCCCC(=O)*; Dab = NCC[C@H](N)C(=O)O; Abu = CC[C@H](N)C(=O)O
# What was measured:
# [1] = test system: Stx2a binding to TLR4-expressing Gb3Cer-lacking human neutrophils
# [2] = in vivo; cited from earlier work
# [3] = test system: human renal tubular cells; conditions: cited from earlier work
# cynomolgus monkey = conditions: in vivo; cited from earlier work
# Stx2a = Stx2a (Escherichia phage 933W, UniProt P09385+P09386); experiment: biochemical; type: binding, E. coli (C600-933W strain)
# [4] = target: lactate dehydrogenase A (LDH-A), tetrameric form (Homo sapiens, UniProt P00338); experiment: biochemical; type: binding
# CD-1 mice = conditions: mouse, in vivo, iv
# E. coli SOS response = conditions: cited from earlier work
# [5] = test system: neutrophil/platelet aggregates; type: cell-based, human
# [6] = test system: Stx2a binding to TLR4-expressing Gb3Cer-lacking human neutrophils; conditions: cited from earlier work
# [7] = test system: interaction between LPS and TLR4; conditions: cited from earlier work
# [8] = test system: Raji cells (Gb3Cer-expressing); conditions: cited from earlier work
# E. coli = conditions: cited from earlier work
# SOS response = conditions: cited from earlier work
# Shigella = conditions: cited from earlier work
# [9] = test system: monocyte/platelet aggregates; type: cell-based, human
compound,measurement,setting,value
CCCCCCCC(=O)N[C@@H](CCN)C(=O)N[C@H](C(=O)N[C@@H](C(=O)N[C@H]1CCNC(=O)[C@H]([C@@H](C)O)NC(=O)[C@H](CCN)NC(=O)[C@H](CC)NC(=O)[C@H](CC(C)C)NC(=O)[C@@H](Cc2ccccc2)NC(=O)[C@H](CCN)NC1=O)[C@H](C)O)[C@@H](C)O [NAB815] (Octanoyl-[Dab]T[dT][Dab][Dab][dF]L[Abu][Dab]T; lactam 4-C),IC50 in inhibiting the binding of Stx2a to human neutrophils,[1],0.057 µg/mL
same,excretion into urine relative to polymyxin B,[2],approximately 10 times
same,"IC50, cytotoxicity to human renal tubular cells",[3],334 µg/mL
same,cytotoxicity lower than that of polymyxin B (fold),[3],approximately 20 times
same,"serum creatinine, blood urea nitrogen, urinary biomarkers",cynomolgus monkey,"no significant increase in serum creatinine, blood urea nitrogen, or in the urinary biomarkers tested"
same,tolerability,cynomolgus monkey,well tolerated
same,Kd,Stx2a,0.05 µM
same,maximum reduction (quenching) of Stx2a fluorescence,Stx2a,approximately 10%
same,necrotic leukocytes (7-AAD+),human leukocytes,the number of necrotic cells was negligible
same,hemolysis,human erythrocytes,no hemolysis occurred
same,Kd,[4],10 µM
same,serum creatinine and urea,CD-1 mice,No changes in serum creatinine and urea were found
O=C(O)c1cn(C2CC2)c2cc(N3CCNCC3)c(F)cc2c1=O [ciprofloxacin],MIC/SIC ratio,E. coli SOS response,8
same,SOS-inducing action,E. coli SOS response,frequently used as a model antibiotic inducing the SOS response
CNC(C)C1CCC(N)C(OC2C(N)CC(N)C(OC3OCC(C)(O)C(NC)C3O)C2O)O1 (stereo not drawn) [gentamicin],MIC/SIC ratio,E. coli SOS response,1.8
same,SOS-inducing action,E. coli SOS response,poor
CO[C@@]12[C@H](COC(N)=O)C3=C(C(=O)C(C)=C(N)C3=O)N1C[C@@H]1N[C@@H]12 [mitomycin C],MIC/SIC ratio,E. coli SOS response,1.4
same,SOS-inducing action,E. coli SOS response,strong SOS-inducing actions
Triton X-100,hemolysis,human erythrocytes,"no hemolysis occurred, unlike treatment with Triton X-100, chosen as a positive control"
polymyxin B,effect on neutrophil/platelet aggregates,[5],ineffective at these concentrations
same,IC50 in inhibiting the binding of Stx2a to human neutrophils,[6],3.5 µg/mL
same,"effect on Stx2a/TLR4 interactions, binding of Stx2a to leukocytes",[6],effectively impairs the Stx2a/TLR4 interactions; also recorded: does block the binding of Stx2a to leukocytes at μg/mL concentrations that are also highly bactericidal
same,block of LPS/TLR4 interaction,[7],known to block the interaction between the bacterial endotoxin (lipopolysaccharide [LPS]) and TLR4
same,lack of protection of Gb3Cer-expressing Raji cells from Stx2a,[8],as previously shown with polymyxin B
same,"IC50, cytotoxicity to human renal tubular cells",[3],18 µg/mL
same,tolerability,cynomolgus monkey,had to be euthanized because of severe nephrotoxicity
same,MIC,E. coli,1 µg/mL
same,concentration eliciting the SOS response,SOS response,higher than 1 μg/mL
same,concentration inducing release of considerable amounts of Stx by Shigella,Shigella,higher than 1 μg/mL
same,effect on monocyte/platelet aggregates,[9],ineffective at these concentrations
